Reference: the NIST ThermoML archive (doi:10.1016/j.fluid.2009.07.010)
Numbers after ± are expanded uncertainties.

Columns and labels:
[1] = for mass density: 298.1 K, 101.33 kPa, Liquid, Vibrating tube method; for surface tension liquid-gas: 298.15 K, Drop volume
[2] = xn = mol fraction of the nth substance listed; conditions: 298.15 K; for surface tension liquid-gas: Drop volume; for mass density: 101 kPa, Liquid, Vibrating tube method

CCCCn1cc[n+](C)c1.F[B-](F)(F)F [1-butyl-3-methylimidazolium tetrafluoroborate]
[1]
Conditions | mass density [kg/m3] | surface tension liquid-gas [mN/m]
– | 1201.2 ± 0.5 | 45.33 ± 0.3

CCCCn1cc[n+](C)c1.F[B-](F)(F)F [1-butyl-3-methylimidazolium tetrafluoroborate] + CCO
[2]
Conditions | mass density [kg/m3] | surface tension liquid-gas [mN/m]
x1 = 0.0986 | 897.2 ± 0.3 | 22.83 ± 0.15
x1 = 0.2002 | 977.4 ± 0.3 | 23.28 ± 0.16
x1 = 0.2553 | 1010.7 ± 0.3 | 24.65 ± 0.16
x1 = 0.2881 | 1027.9 ± 0.3 | –
x1 = 0.3284 | 1046.8 ± 0.3 | 25.53 ± 0.17
x1 = 0.3999 | 1075.5 ± 0.4 | 26.55 ± 0.18
x1 = 0.4202 | 1082.7 ± 0.4 | 27.2 ± 0.18
x1 = 0.5024 | 1108.6 ± 0.4 | 28.87 ± 0.19
x1 = 0.6082 | 1135.9 ± 0.4 | 31.32 ± 0.21
x1 = 0.7107 | 1157.4 ± 0.4 | 34.9 ± 0.23
x1 = 0.804 | 1173.7 ± 0.4 | 37.99 ± 0.25
x1 = 0.9059 | 1188.8 ± 0.5 | 41.54 ± 0.27
x1 = 1 | 1201.2 ± 0.5 | 45.33 ± 0.3

CCCCn1cc[n+](C)c1.F[B-](F)(F)F [1-butyl-3-methylimidazolium tetrafluoroborate] + O
[2]
Conditions | mass density [kg/m3] | surface tension liquid-gas [mN/m]
x1 = 0.0001 | – | 61.54 ± 0.25
x1 = 0.0003 | – | 61.5 ± 0.25
x1 = 0.0017 | 1000.9 ± 0.2 | –
x1 = 0.0035 | 1004.8 ± 0.3 | –
x1 = 0.0039 | – | 57.3 ± 0.24
x1 = 0.0052 | 1008.5 ± 0.3 | –
x1 = 0.0058 | – | 54.34 ± 0.23
x1 = 0.0069 | 1011.9 ± 0.3 | –
x1 = 0.0074 | – | 51.77 ± 0.22
x1 = 0.0092 | 1014.4 ± 0.3 | –
x1 = 0.0094 | – | 50.63 ± 0.22
x1 = 0.0197 | 1030.6 ± 0.3 | –
x1 = 0.02 | – | 46.93 ± 0.21
x1 = 0.0335 | 1048.2 ± 0.3 | –
x1 = 0.0404 | – | 46.02 ± 0.21
x1 = 0.0498 | – | 46.27 ± 0.21
x1 = 0.0502 | 1065.2 ± 0.3 | –
x1 = 0.0586 | – | 46.25 ± 0.21
x1 = 0.0698 | – | 46.14 ± 0.21
x1 = 0.0736 | 1084.1 ± 0.3 | –
x1 = 0.0799 | – | 45.99 ± 0.21
x1 = 0.0998 | – | 46.19 ± 0.22
x1 = 0.1013 | – | 45.63 ± 0.21
x1 = 0.1072 | 1103.9 ± 0.3 | –
x1 = 0.1081 | – | 46.23 ± 0.21
x1 = 0.139 | – | 46.22 ± 0.22
x1 = 0.1398 | 1118 ± 0.3 | –
x1 = 0.1621 | – | 46.16 ± 0.22
x1 = 0.1688 | 1128 ± 0.3 | –
x1 = 0.1788 | – | 46.06 ± 0.22
x1 = 0.1818 | – | 45.91 ± 0.22
x1 = 0.2128 | – | 45.62 ± 0.22
x1 = 0.252 | 1148.2 ± 0.3 | –
x1 = 0.2963 | 1156.2 ± 0.3 | 46.25 ± 0.23
x1 = 0.3734 | 1166.9 ± 0.3 | –
x1 = 0.4067 | 1169.4 ± 0.3 | 46.32 ± 0.24
x1 = 0.4408 | 1171.9 ± 0.3 | –
x1 = 0.4946 | 1177.9 ± 0.4 | –
x1 = 0.5252 | 1178.7 ± 0.4 | –
x1 = 0.5304 | 1181.5 ± 0.4 | 46.02 ± 0.25
x1 = 0.5723 | 1181.8 ± 0.4 | –
x1 = 0.6 | 1185 ± 0.4 | –
x1 = 0.6326 | 1187.9 ± 0.4 | 45.81 ± 0.26
x1 = 0.6922 | 1189.4 ± 0.4 | –
x1 = 0.7065 | 1191.1 ± 0.4 | 45.68 ± 0.27
x1 = 0.8003 | – | 45.52 ± 0.28
x1 = 0.8167 | 1193.7 ± 0.4 | –
x1 = 0.9005 | 1197.8 ± 0.5 | 45.41 ± 0.29
x1 = 1 | 1201.2 ± 0.5 | 45.33 ± 0.3

CCn1cc[n+](C)c1.F[B-](F)(F)F [1-ethyl-3-methylimidazolium tetrafluoroborate]
[1]
Conditions | mass density [kg/m3] | surface tension liquid-gas [mN/m]
– | 1279.9 ± 1.5 | 52.81 ± 0.57

CCn1cc[n+](C)c1.F[B-](F)(F)F [1-ethyl-3-methylimidazolium tetrafluoroborate] + CCO
[2]
Conditions | mass density [kg/m3] | surface tension liquid-gas [mN/m]
x1 = 0.6087 | 1190.3 ± 0.7 | 33.58 ± 0.29
x1 = 0.7056 | 1225.5 ± 0.9 | 37.37 ± 0.34
x1 = 0.8072 | 1241.6 ± 1.1 | 42.77 ± 0.41
x1 = 0.9054 | 1262.6 ± 1.3 | 47.41 ± 0.49
x1 = 1 | 1279.9 ± 1.5 | 53.04 ± 0.57

CCn1cc[n+](C)c1.F[B-](F)(F)F [1-ethyl-3-methylimidazolium tetrafluoroborate] + O
[2]
Conditions | mass density [kg/m3] | surface tension liquid-gas [mN/m]
x1 = 0.004 | 1005.5 ± 0.3 | 67.38 ± 0.27
x1 = 0.0077 | 1013.2 ± 0.3 | 65 ± 0.26
x1 = 0.0123 | 1021.8 ± 0.3 | 62.87 ± 0.26
x1 = 0.0132 | 1023.4 ± 0.3 | 61.91 ± 0.25
x1 = 0.0288 | 1046.4 ± 0.3 | 58.15 ± 0.25
x1 = 0.0483 | 1068.2 ± 0.3 | 57.31 ± 0.25
x1 = 0.0709 | 1088.6 ± 0.3 | 55.92 ± 0.25
x1 = 0.102 | 1111.7 ± 0.3 | 55.24 ± 0.25
x1 = 0.1418 | 1135.8 ± 0.3 | 54.43 ± 0.26
x1 = 0.2141 | 1169.1 ± 0.4 | 53.8 ± 0.27
x1 = 0.2191 | 1171 ± 0.4 | –
x1 = 0.2894 | – | 54.15 ± 0.3
x1 = 0.3118 | 1200.3 ± 0.4 | –
x1 = 0.4011 | – | 54.01 ± 0.33
x1 = 0.4551 | 1230 ± 0.5 | –
x1 = 0.4987 | 1236.7 ± 0.6 | –
x1 = 0.5074 | – | 53.88 ± 0.37
x1 = 0.5923 | 1248.6 ± 0.7 | –
x1 = 0.6018 | – | 53.73 ± 0.41
x1 = 0.691 | 1258.5 ± 0.8 | –
x1 = 0.7534 | – | 53.51 ± 0.47
x1 = 0.7774 | 1265.5 ± 1 | –
x1 = 0.9015 | – | 53.25 ± 0.53
x1 = 1 | 1279.9 ± 1.5 | 53.04 ± 0.57

CCCCCCn1cc[n+](C)c1.F[B-](F)(F)F [1-hexyl-3-methylimidazolium tetrafluoroborate]
[1]
Conditions | mass density [kg/m3] | surface tension liquid-gas [mN/m]
– | 1145.4 ± 0.4 | 37.33 ± 0.26

CCCCCCn1cc[n+](C)c1.F[B-](F)(F)F [1-hexyl-3-methylimidazolium tetrafluoroborate] + CCO
[2]
Conditions | mass density [kg/m3] | surface tension liquid-gas [mN/m]
x1 = 0.098 | 893.9 ± 0.3 | 23.11 ± 0.15
x1 = 0.1998 | 964.6 ± 0.3 | 24.21 ± 0.16
x1 = 0.3 | 1011.9 ± 0.3 | 25.62 ± 0.17
x1 = 0.3991 | 1046.1 ± 0.3 | 27.09 ± 0.18
x1 = 0.5079 | 1073.7 ± 0.3 | 28.82 ± 0.19
x1 = 0.6123 | 1095.5 ± 0.4 | 30.74 ± 0.2
x1 = 0.702 | 1108.8 ± 0.4 | 32.47 ± 0.22
x1 = 0.803 | 1123.9 ± 0.4 | 34.22 ± 0.23
x1 = 0.9 | 1134.7 ± 0.4 | 35.75 ± 0.24
x1 = 1 | 1145.5 ± 0.4 | 37.33 ± 0.26

CCCCCCn1cc[n+](C)c1.F[B-](F)(F)F [1-hexyl-3-methylimidazolium tetrafluoroborate] + O
[2]
Conditions | mass density [kg/m3] | surface tension liquid-gas [mN/m]
x1 = 0.3032 | 1115.8 ± 0.3 | 37.93 ± 0.2
x1 = 0.4059 | 1123.9 ± 0.3 | 37.79 ± 0.21
x1 = 0.5058 | 1129.2 ± 0.3 | 37.65 ± 0.21
x1 = 0.6061 | 1133.8 ± 0.3 | 37.52 ± 0.22
x1 = 0.7057 | 1137.4 ± 0.4 | 37.4 ± 0.23
x1 = 0.803 | 1140.3 ± 0.4 | 37.35 ± 0.24
x1 = 0.9002 | 1142.6 ± 0.4 | 37.33 ± 0.25
x1 = 1 | 1145.5 ± 0.4 | 37.33 ± 0.26

CCCCCCCC[n+]1ccn(C)c1.F[B-](F)(F)F [1-methyl-3-octylimidazolium tetrafluoroborate]
[1]
Conditions | mass density [kg/m3] | surface tension liquid-gas [mN/m]
– | 1104.2 ± 0.4 | 32.84 ± 0.23

CCCCCCCC[n+]1ccn(C)c1.F[B-](F)(F)F [1-methyl-3-octylimidazolium tetrafluoroborate] + CCO
[2]
Conditions | mass density [kg/m3] | surface tension liquid-gas [mN/m]
x1 = 0.1012 | 893 ± 0.3 | 23.33 ± 0.15
x1 = 0.2034 | 957.9 ± 0.3 | 24.7 ± 0.16
x1 = 0.3 | 996.6 ± 0.3 | 25.99 ± 0.17
x1 = 0.4096 | 1026.4 ± 0.3 | 27.28 ± 0.18
x1 = 0.5125 | 1047.8 ± 0.3 | 27.9 ± 0.19
x1 = 0.6156 | 1065.2 ± 0.3 | 28.88 ± 0.19
x1 = 0.7207 | 1079.3 ± 0.4 | 29.9 ± 0.2
x1 = 0.815 | 1088.8 ± 0.4 | 30.86 ± 0.21
x1 = 0.9014 | 1095.6 ± 0.4 | 31.84 ± 0.22
x1 = 1 | 1104.2 ± 0.4 | 32.82 ± 0.23

CCO [ethanol]
[1]
Conditions | mass density [kg/m3] | surface tension liquid-gas [mN/m]
– | 785.8 ± 0.2 | 22 ± 0.15

CCO [ethanol] + CCn1cc[n+](C)c1.F[B-](F)(F)F
[2], x2 = 0
Conditions | mass density [kg/m3] | surface tension liquid-gas [mN/m]
– | 785.8 ± 0.2 | 52.81 ± 0.26

O [water]
Conditions | surface tension liquid-gas [mN/m]
[1] | 71.35 ± 0.28

O [water] + CCCCn1cc[n+](C)c1.F[B-](F)(F)F
Conditions | surface tension liquid-gas [mN/m]
[2], x2 = 0 | 71.35 ± 0.28

O [water] + CCn1cc[n+](C)c1.F[B-](F)(F)F
Conditions | surface tension liquid-gas [mN/m]
[2], x2 = 0 | 71.35 ± 0.28
